The subject of one series is Mouse STC-1 cells. Nature of the series: STC-1 GLP-1 assay. It counts as cell-based. The conditions noted are these: GLP-1 secretion, 2 h, coded A-C, read-out: Mouse STC-1 HTRF GLP-1 Activity (EC50). As to the method:
We evaluated Compounds of the present invention for their ability to induce GLP-1 production in mouse intestinal neuroendocrine tumor cells. Mouse STC-1 cells were cultured and maintained in high glucose DMEM (Sigma #5796) supplemented with 15% horse serum, 5% Fetal Bovine Serum (FBS), 1% penicillin/streptomycin, and 2 mM L-alanine L-glutamine (GlutaMax). Two days prior to analysis of GLP-1 secretion cells were harvested using Accutase (Sigma), spun down then resuspended in high glucose DMEM media containing 2 mM L-alanine L-glutamine (GlutaMax), 10% charcoal-dextran stripped FBS, and 50 μg/mL Gentamicin, at a density of 100,000 cells/mL. 100 μL of cell suspension was added to each well of a 96-well Poly-D-Lysine coated culture plate (Sigma; cat #2382493) and was incubated at 37° C. with 5% CO2.
Compounds were initially diluted in 100% DMSO (12-point serial dilution by half logs) in a 96-well plate and then were further diluted 1:500 in Hanks' Balanced Salt Solution (HBSS) containing protease inhibitor cocktail, DPP-IV inhibitor, and 0.1% fatty acid free bovine serum albumin. On the day of the experiment cells were washed once with HBSS. After wash, 100 μL of test compound was added to each well. The plate was incubated at 37° C. with 5% CO2 for 2 h. Supernatants were collected and GLP-1 secretion was measured using the Cisbio™ Active GLP-1 HTRF Assay Kit (Cisbio). Briefly, Anti-GLP-1-d2 conjugate and Anti-GLP-1 Terbium Cryptate conjugate stock solutions were prepared as per kit instructions. The two solutions were pre-mixed and 10 μL were transferred to a 384-well low volume plate (Greiner; cat #784075). 10 μL of collected supernatants were added to wells already containing the conjugate solution. The plate was covered and incubated at room temperature overnight. The plate was read on an Envision™ plate reader (Perkin Elmer).
In Table 34, EC50 values obtained from the STC-1 GLP-1 production assay for compounds of the present invention are summarized.

Series [1] can be described thus: Pharmacokinetic profile in mice. It counts as in vivo. The conditions noted are these: mouse; fasted male Hilltop mice, 10 mg/kg oral gavage, plasma, mean of three mice. The method, then: Pharmacokinetic Profile in Mice
In this series of studies, the pharmacokinetic profile characteristics of compounds of the present invention were evaluated. The plasma concentration levels of the compounds were monitored in the blood stream (i.e., plasma) after oral gavage using Cmax, and area under the curve (AUC).
8 week old male Hilltop mice were fasted overnight. Animals were randomized into groups (n=9) by body weight. Mice were dosed with 10 mg/kg compound (in 20% PEG400/80% 0.5% carboxymethylcellulose (medium viscosity)+0.25% Tween-80) at a volume of 10 mL/kg through oral gavage. Blood was collected via orbital bleeding at 0, 0.25, 0.5, 1, 2, and 4 h post-dose, with no one mouse having more than 3 blood draws. Blood was collected in EDTA coated tubes. Samples were stored at −20° C. until analysis.
Quantitation of compound levels in plasma was accomplished by LC-MS/MS analysis. Standard curve and quality control samples were prepared in male CD-1 mouse plasma containing EDTA K^2+ as an anticoagulant at final concentrations ranging from 500 to 0.1 ng/mL. The plasma samples, calibration curve standards, and quality control samples were prepared in an identical method in a 96-well deep plate (1 mL) with a quenching solution (1:1 mixed acetonitrile:methanol containing the internal standard Reserpine @ 400 ng/mL). Low volume samples were supplemented with CD-1 mouse plasma. The plate was mixed on multi-tube votex for 1 min and centrifuged at 4000 rpm for 30 min at 4° C. (Sorvall® Super T21) before LC-MS/MS analysis. LC conditions were developed and optimized based on each compound as needed. The outlet of the column was coupled to AB Sciex 4000 QTrap Mass Spectrometer (AB Sciex, Brugg Switzerland). Detection was carried out using multiple reaction monitoring mode with positive-ion detection focusing. The pharmacokinetic parameters were derived from the plasma-time data and calculated using the standard non-compartmental method with WinNonlin (Pharsight, Mountain View, Calif.) or PK Solver (Comp. Meth. Prog. Biomed. (2010), 99, 306-314).
Values reported are the mean plasma concentration of three mice.

Consider `CCc1cnccc1-c1cccc(C(C)(C)N(CCCC(=O)NCCS(=O)(=O)O)S(=O)(=O)c2cccc(Cl)c2C)c1` [Compound 20AC, 2-(4-(3-chloro-N-(2-(3-(3-ethylpyridin-4-yl)phenyl)propan-2-yl)-2-methylphenylsulfonamido)butanamido)ethanesulfonic acid], for which the EC50 – broadly, the concentration giving half of the maximal effect – in the series with Mouse STC-1 cells was 0.1 to 0.999 µM. Further, the peak level in series [1] (Cmax) was 7.8 ng/mL.
With `CCc1cnccc1-c1cccc(C2CN(C(=O)CCC(=O)O)CCN2S(=O)(=O)c2cccc(Cl)c2C)c1` (racemic) [Compound 46, (+/−) 4-(4-((3-Chloro-2-methylphenyl)sulfonyl)-3-(3-(3-ethylpyridin-4-yl)phenyl)piperazin-1-yl)-4-oxobutanoic acid], the 50% effective concentration (EC50) in the series on Mouse STC-1 cells lay in the range of 0.1 to 0.999 µM. Also, the Cmax (as a rule, the peak of the concentration-time curve) in series [1] came out at 436 ng/mL.
Regarding `CCc1cnccc1-c1cccc([C@H](C)N(CCCC(=O)NC[C@@H](O)[C@H](O)[C@@H](O)[C@@H](O)CO)S(=O)(=O)c2cccc(Cl)c2C)c1` [Compound 20AN, 4-(3-chloro-N-((S)-1-(3-(3-ethylpyridin-4-yl)phenyl)ethyl)-2-methylphenylsulfonamido)-N-((2R,3S,4S,5S)-2,3,4,5,6-pentahydroxyhexyl)butanamide], the EC50 with Mouse STC-1 cells fell in the range of 0.1 to 0.999 µM. The same compound registered a Cmax in series [1] of 1.7 ng/mL.
On the same counts, the results for `Cc1cnccc1-c1cccc(C(C)(C)N(CCCNC(=O)NCCS(=O)(=O)O)S(=O)(=O)c2cccc(Cl)c2C)c1` [Compound 29AA, 2-(3-(3-((3-Chloro-2-methyl-N-(2-(3-(3-methylpyridin-4-yl)phenyl)propan-2-yl)phenyl)sulfonamide)propyl)ureido)ethane-1-sulfonic acid] are 0.1 to 0.999 µM and 1.5 ng/mL.
As to `CCc1cnccc1-c1cccc([C@H](C)N(CCCC(=O)NCCS(=O)(=O)NCC(=O)O)S(=O)(=O)c2ccccc2C(F)(F)F)c1` [Compound 20BG], in the series on Mouse STC-1 cells, the EC50 is 0.1 to 0.999 µM. The same compound gave a Cmax in series [1] of 0.3 ng/mL.
Take `Cc1cnccc1-c1cccc([C@H](C)N(CCCCC(=O)NCCS(=O)(=O)NCCC(=O)O)S(=O)(=O)c2ccccc2C(F)(F)F)c1` [Compound 20BM]: the EC50 in the series on Mouse STC-1 cells lay within 1 to 30 µM. For the same compound, the highest level in series [1] (Cmax) was 0.6 ng/mL.
For `CCc1cnccc1-c1cccc([C@H](C)N(CCCC(=O)NCCS(=O)(=O)O)S(=O)(=O)c2ccccc2C(F)(F)F)c1` [Compound 20BF, (S)-2-(4-(N-(1-(3-(3-ethylpyridin-4-yl)phenyl)ethyl)-2-(trifluoromethyl)phenylsulfonamido)butanamido)ethanesulfonic acid], the EC50 in the series with Mouse STC-1 cells lay within 0.1 to 0.999 µM. Further, the peak concentration (Cmax) in series [1] is 0.8 ng/mL.
On the same counts, the results for `CCc1cnccc1-c1cccc([C@H](C)N(CCCCNC(=O)NCS(=O)(=O)O)S(=O)(=O)c2ccccc2C(F)(F)F)c1` [Compound 28AH, (S)-(3-(4-(N-(1-(3-(3-ethylpyridin-4-yl)phenyl)ethyl)-2-(trifluoromethyl)phenylsulfonamido)butyl)ureido)methanesulfonic acid] are 0.1 to 0.999 µM and 4.6 ng/mL.
In series [1], `Cc1cnccc1-c1cccc(C(C)(C)N(CCCC(=O)NCCCS(=O)(=O)O)S(=O)(=O)c2cccc(Cl)c2C)c1` [Compound 20AD, 3-(4-(3-chloro-2-methyl-N-(2-(3-(3-methylpyridin-4-yl)phenyl)propan-2-yl)phenylsulfonamido)butanamido)propane-1-sulfonic acid] registered a maximum concentration (Cmax) of 2.5 ng/mL.
In the case of `Cc1cnccc1-c1cccc(C(C)(C)N(CCCC(=O)NCCS(=O)(=O)NCC(=O)O)S(=O)(=O)c2cccc(Cl)c2C)c1` [Compound 20AW, (4-(3-chloro-2-methyl-N-(2-(3-(3-methylpyridin-4-yl)phenyl)propan-2-yl)phenylsulfonamido)-N-butanamidoethylsulfonamido)acetic acid], the concentration in series [1] peaked (Cmax) at 2.8 ng/mL.
Take `Cc1cnccc1-c1cccc(C(C)(C)N(CCCC(=O)NCC(=O)O)S(=O)(=O)c2cccc(Cl)c2C)c1` [Compound 21AB, 2-(4-(3-chloro-2-methyl-N-(2-(3-(3-methylpyridin-4-yl)phenyl)propan-2-yl)phenylsulfonamido)butanamido)acetic acid]: the concentration in series [1] peaked (Cmax) at 19.4 ng/mL.

The values are drawn from patent US11236055B2 (Venenum Biodesign, LLC, priority 2016, dated 2022).
